For experiment [1], the target named is T1, TBK1 (Homo sapiens, UniProt Q9UHD2).
T1 sequence (Q9UHD2 1-729): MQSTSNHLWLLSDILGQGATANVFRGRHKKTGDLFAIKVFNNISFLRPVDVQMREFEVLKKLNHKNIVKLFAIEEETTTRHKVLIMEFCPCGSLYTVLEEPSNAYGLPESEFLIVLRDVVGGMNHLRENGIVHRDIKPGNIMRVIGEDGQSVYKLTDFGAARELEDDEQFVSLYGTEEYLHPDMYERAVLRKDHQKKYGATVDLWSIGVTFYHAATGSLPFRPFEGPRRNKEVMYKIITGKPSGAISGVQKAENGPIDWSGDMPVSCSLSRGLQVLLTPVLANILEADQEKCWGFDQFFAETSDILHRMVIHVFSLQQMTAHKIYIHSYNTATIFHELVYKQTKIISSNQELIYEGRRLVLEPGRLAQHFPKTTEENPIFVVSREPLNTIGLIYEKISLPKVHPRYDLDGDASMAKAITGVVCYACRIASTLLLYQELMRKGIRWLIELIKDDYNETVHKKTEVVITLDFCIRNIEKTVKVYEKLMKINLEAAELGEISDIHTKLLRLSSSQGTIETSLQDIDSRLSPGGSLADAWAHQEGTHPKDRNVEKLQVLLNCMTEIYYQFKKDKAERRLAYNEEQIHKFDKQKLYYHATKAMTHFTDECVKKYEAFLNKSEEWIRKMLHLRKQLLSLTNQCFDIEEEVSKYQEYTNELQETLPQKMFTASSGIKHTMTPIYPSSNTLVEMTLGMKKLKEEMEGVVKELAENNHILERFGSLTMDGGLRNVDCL
Briefly: TBK Biochemical Assay. The note with it: read-out: TBK1 IC50. Put shortly: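 Caliper LabChip mobility-shift readout of substrate and product after 90 min of TBK1 reaction at 25° C and stop-buffer addition. Compounds tested in 1:4 serial dilution over 10 points from 30 uM final at 1% DMSO; staurosporine 10 uM final defines full inhibition.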

Experiment [2] addresses T2, IKKε (Homo sapiens, UniProt Q14164).
T2 sequence (Q14164 1-716): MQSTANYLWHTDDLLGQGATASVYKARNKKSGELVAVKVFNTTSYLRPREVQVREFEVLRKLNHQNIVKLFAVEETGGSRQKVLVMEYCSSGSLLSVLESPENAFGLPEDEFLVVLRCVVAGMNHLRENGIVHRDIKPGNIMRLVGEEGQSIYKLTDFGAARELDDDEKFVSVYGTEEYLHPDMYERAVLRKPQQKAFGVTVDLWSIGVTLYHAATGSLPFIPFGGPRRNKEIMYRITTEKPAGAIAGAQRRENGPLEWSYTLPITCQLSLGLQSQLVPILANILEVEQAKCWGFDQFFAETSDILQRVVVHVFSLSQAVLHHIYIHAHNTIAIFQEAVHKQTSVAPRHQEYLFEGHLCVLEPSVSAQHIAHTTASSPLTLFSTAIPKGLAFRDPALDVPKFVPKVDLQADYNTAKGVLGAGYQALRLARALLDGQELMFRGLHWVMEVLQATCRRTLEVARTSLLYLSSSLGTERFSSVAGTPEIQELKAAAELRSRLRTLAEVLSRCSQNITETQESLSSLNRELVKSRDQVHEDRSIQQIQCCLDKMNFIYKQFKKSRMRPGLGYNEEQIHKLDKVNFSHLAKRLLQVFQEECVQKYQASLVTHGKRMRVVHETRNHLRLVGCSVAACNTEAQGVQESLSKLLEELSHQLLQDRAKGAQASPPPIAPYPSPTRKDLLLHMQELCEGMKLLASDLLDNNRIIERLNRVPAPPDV
Nature of the experiment: IKKe Biochemical Assay. Particulars: read-out: IKKε IC50. Put shortly:
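Activity was measured as mobility-shift separation of phosphorylated from unphosphorylated substrate on a LabChip EZ Reader. Compound was titrated from 30 uM final in 10 points, 1:4 steps, with 1% DMSO, and enzyme plus substrate reacted 90 min at 25° C before stop buffer. Control wells held 10 uM staurosporine.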

Experiment [3] deals with phosphorylation of the IRF-3 protein in MDA-MB-468 cells. Nature of the experiment: pIRF3 immunocytochemistry cell based assay. As for the experimental part: The purpose of the pIRF3 immunocytochemistry cell based assay was to identify small molecules which modulates TBK/IKKe kinase activity through on target substrate phosphorylation of the IRF-3 protein. On the first day of the experiment, MDA-MB-468 cells were plated in 384 well, black, clear-bottom, Poly D lysine coated plates at a density of 5000 cells/well in 45 ul of complete DMEM and allowed to adhere overnight. On the second day compounds were added to cells at a starting concentration of 10 uM with a serial dilution of 3-fold for a total of 10 points. The cells were incubated for 1 hr at 37° C. Cells were then stimulated with Poly(I:C) at a final concentration of 10 ug/ml, and were incubated for 2 hr at 37° C. Following the incubation, media was removed from the wells and the cells were fixed with 4% PFA for 15 min at RT. Cells were washed at least 3 times with PBS, and then permeabilized with ice-cold methanol for 10 min at RT. The washing step was repeated and the cells were then blocked using 10% goat serum/1% BSA, made up in PBS and allowed to incubate at RT for 1 hr. The cells were washed again and then treated with an anti-pIRF3 antibody at 4° C. overnight (1:250 dilution of Abcam ab76493 in PBS containing 1% BSA). On the third day the primary antibody was washed off and pIRF3 was detected by adding the secondary antibody conjugated to AlexaFluor488 (1:200 dilution of secondary antibody in PBS containing 1% BSA) for 1 hr at RT. Cells were washed and then counterstained with PI/RNase staining buffer for 15 min at RT and read on the Acumen Explorer laser scanning cytometer. The percentage of phosphorylation of the IRF-3 protein was calculated using the following algorithm, a modified version of the mean half width intensity (pIRF3 staining)/(PI staining or # of cells)×100%). IC50 curves were generated using the Genedata software.

The mark [4] stands for this setting: Homo sapiens, MDA-MB-468 cells, Poly(I:C) stimulation, read-out: pIRF3 IC50.

Structures can show the parent of a compound that is named as a salt. Where two headings read alike, the source gives them in different places. A value given as a limit tells only on which side of the number the result lay.

As for `COc1cc(C(=O)N(C)C)ccc1-c1cc2nccc(-c3ccc(OC4CCN(C(C)=O)CC4)c(C#N)c3)c2o1` [Compound 112, 4-{7-[4-(1-Acetyl-piperidin-4-yloxy)-3-cyano-phenyl]-furo[3,2-b]pyridin-2-yl}-3-methoxy-N,N-dimethyl-benzamide], the IC50 – broadly, the midpoint of a concentration-inhibition curve – in experiment [1] was less than 100 nM; in experiment [2], less than 100 nM; in experiment [3] (setting [4]), 100 to 1000 nM.
With `COc1cc(C(=O)N2CCCC2)ccc1-c1cc2nccc(-c3ccc(OC4CCOCC4)c(C#N)c3)c2o1` [Compound 37, 5-{2-[2-Methoxy-4-(pyrrolidine-1-carbonyl)-phenyl]-furo[3,2-b]pyridin-7-yl}-2-(tetrahydro-pyran-4-yloxy)-benzonitrile], the IC50 in experiment [1] is less than 100 nM; in experiment [2], less than 100 nM; in experiment [3] (setting [4]), 100 to 1000 nM.
For the compound `COc1cc(C(=O)N(C)C)ccc1-c1cc2nccc(-c3ccc(OC4CCCNC4)c(C#N)c3)c2o1` (stereo not drawn) [Compound 140, 4-{7-[3-Cyano-4-(piperidin-3-yloxy)-phenyl]-furo[3,2-b]pyridin-2-yl}-3-methoxy-N,N-dimethyl-benzamide Hydrochloride], the IC50 in experiment [1], in experiment [2] and in experiment [3] (setting [4]) was less than 100 nM each time.
As to `COc1cc(C(=O)N2CCC(O)C2)ccc1-c1cc2nccc(-c3ccc(NC4CCOCC4)c(C#N)c3)c2o1` (stereo not drawn) [Compound 104, 5-{2-[4-(3-Hydroxy-pyrrolidine-1-carbonyl)-2-methoxy-phenyl]-furo[3,2-b]pyridin-7-yl}-2-(tetrahydro-pyran-4-ylamino)-benzonitrile], the figures for the IC50 in experiment [1], in experiment [2] and in experiment [3] (setting [4]) were less than 100 nM, less than 100 nM and 100 to 1000 nM, respectively.
Regarding `COc1cc(C(=O)NC2C3COCC32)cnc1-c1cc2nccc(-c3ccc(N4CC[C@H](F)C4)c(C#N)c3)c2o1` (stereo partly drawn) [Compound 467, 6-{7-[3-Cyano-4-((S)-3-fluoro-pyrrolidin-1-yl)-phenyl]-furo[3,2-b]pyridin-2-yl}-5-methoxy-N-(3-oxa-bicyclo[3.1.0]hex-6-yl)-nicotinamide], the IC50 was less than 100 nM in experiment [1]; less than 100 nM in experiment [2]; 100 to 1000 nM in experiment [3] (MDA-MB-468 cells, Poly(I:C) stimulation, read-out: pIRF3 IC50).
Take `COc1cc(C(=O)N2CCC(CO)CC2)ccc1-c1cc2nccc(-c3ccc(OC4CCOCC4)c(C#N)c3)c2o1` [Compound 5, 5-{2-[4-(4-Hydroxymethyl-piperidine-1-carbonyl)-2-methoxy-phenyl]-furo[3,2-b]pyridin-7-yl}-2-(tetrahydro-pyran-4-yloxy)-benzonitrile]: the IC50 in experiment [1], in experiment [2] and in experiment [3] (setting [4]) was less than 100 nM throughout.
On to `COc1cc(C(=O)N[C@@H]2CCN(C)C2)ccc1-c1cc2nccc(-c3ccc(OC4CCOCC4)c(C#N)c3)c2o1` [Compound 494, 5-{2-[4-(N—((R)-methyl-pyrrolidin-3-yl)-1-carbonyl)-2-methoxy-phenyl]-furo[3,2-b]pyridin-7-yl}-2-(tetrahydro-pyran-4-yloxy)-benzonitrile], for which the IC50 in experiment [1] was less than 100 nM; in experiment [2] it was less than 100 nM; in experiment [3] (setting [4]), 100 to 1000 nM.
For `COc1cc(C(=O)N2CCN(C)CC2)ccc1-c1cc2nccc(-c3ccc(OC4CCOCC4)c(C#N)c3)c2o1` [Compound 15, 5-{2-[2-Methoxy-4-(4-methyl-piperazine-1-carbonyl)-phenyl]-furo[3,2-b]pyridin-7-yl}-2-(tetrahydro-pyran-4-yloxy)-benzonitrile], the IC50 in experiment [1], in experiment [2] and in experiment [3] (setting [4]) was less than 100 nM each time.
Take `COc1cc(C(=O)N[C@H]2C[C@H](CO)N(C)C2)ccc1-c1cc2nccc(-c3ccc(OC4CCOCC4)c(C#N)c3)c2o1` (stereo in doubt) [Compound 350, 4-[7-[3-cyano-4-(oxan-4-yloxy)phenyl]furo[3,2-b]pyridin-2-yl]-N-[(3S,5R)-5-(hydroxymethyl)-1-methylpyrrolidin-3-yl]-3-methoxybenzamide]: the IC50 in experiment [1] was less than 100 nM; in experiment [2], less than 100 nM; in experiment [3] (setting [4]), 100 to 1000 nM.
Turning to `COc1cc(C(=O)N2CCC2)cnc1-c1cc2nccc(-c3ccc(OC4CCOCC4)c(C#N)c3)c2o1` [Compound 415, 5-(2-[5-[(azetidin-1-yl)carbonyl]-3-methoxypyridin-2-yl]furo[3,2-b]pyridin-7-yl)-2-(oxan-4-yloxy)benzonitrile], the IC50 in experiment [1] is less than 100 nM; in experiment [2], less than 100 nM; in experiment [3] (Homo sapiens, MDA-MB-468, read-out: pIRF3 IC50) it was 100 to 1000 nM.
`COc1cc(C(=O)NN)ccc1-c1cc2nccc(-c3ccc(OC4CCOCC4)c(C#N)c3)c2o1` [Compound 110, 4-{7-[3-Cyano-4-(tetrahydro-pyran-4-yloxy)-phenyl]-furo[3,2-b]pyridin-2-yl}-3-methoxy-benzoic acid hydrazide]: the IC50 in experiment [1] is less than 100 nM; in experiment [2] it was less than 100 nM; in experiment [3] (setting [4]), 100 to 1000 nM.
Regarding `COc1cc(C(=O)N2CC[C@@H](N(C)C)C2)cnc1-c1cc2nccc(-c3ccc(N4CC[C@H](F)C4)c(C#N)c3)c2o1` [Compound 455, 5-[2-(5-[[(3R)-3-(dimethylamino)pyrrolidin-1-yl]carbonyl]-3-methoxypyridin-2-yl) (S)-furo[3,2-b]pyridin-7-yl]-2-(3-fluoropyrrolidin-1-yl)benzonitrile], the IC50 in experiment [1], in experiment [2] and in experiment [3] (setting [4]) was less than 100 nM each time.
On to `COc1cc(C(=O)NC2CCOC2)ccc1-c1cc2nccc(-c3ccc(NC4CCOCC4)c(C#N)c3)c2o1` (stereo not drawn) [Compound 117, 4-{7-[3-Cyano-4-(tetrahydro-pyran-4-ylamino)-phenyl]-furo[3,2-b]pyridin-2-yl}-3-methoxy-N-(tetrahydro-furan-3-yl)-benzamide], for which the IC50 in experiment [1] is less than 100 nM; in experiment [2], less than 100 nM; in experiment [3] (setting [4]) it was 100 to 1000 nM.
For the compound `COc1cc(C(=O)N2CCCCC2)ncc1-c1cc2nccc(-c3ccc(N4CCC(F)C4)c(C#N)c3)c2o1` (stereo in doubt) [Compound 384, 2-((S)-3-Fluoro-pyrrolidin-1-yl)-5-{2-[4-methoxy-6-(piperidine-1-carbonyl)-pyridin-3-yl]-furo[3,2-b]pyridin-7-yl}-benzonitrile], the IC50 in experiment [1], in experiment [2] and in experiment [3] (setting [4]) was less than 100 nM each time.

Source of the values: US10428080B2, “TBK/IKK inhibitor compounds and uses thereof” (Merck Patent GmbH, priority 2015, dated 2019).
